Common to all, as to experiment: Growth on various substrates (carbon substrate utilization)
The test system of assay [1] is C. ragsdalei. The class given is cell-based, Clostridium ragsdalei. To be noted: for Growth on substrate: 1 g/L carbon source, N2:CO2 (80%:20%), OD600. The procedure: (§1) Growth was measured spectrophotometrically at 600 nm (Spectronic 20D; Milton Roy). Carbon substrate utilization was based upon growth after consecutive transfers in media containing 1 g/L of each carbon source. For carbon substrates, screening was performed under an atmosphere of N2: CO2 (80%:20%). A positive growth response was recorded for an OD600 exceeding 0.2 AU. For citrate, additional ^13C-labeled isotope experiments were conducted to determine the nature of products by analysis of final 0.2 μm-filtered product samples by carbon NMR using a Bruker UltraShield Avance 400 MHz nuclear magnetic resonance spectrometer.

The subject of assay [2] is C. autoethangenum. The class given is cell-based, Clostridium autoethanogenum. The following applies: for Growth on substrate: C. autoethangenum, 1 g/L carbon source, N2:CO2 (80%:20%), OD600. The procedure:
as §1

Assay [3] has as its system C. ljungdahlii PETC. The class given is cell-based, Clostridium ljungdahlii PETC. The following applies: for Growth on substrate: 1 g/L carbon source, N2:CO2 (80%:20%), OD600. The procedure: as §1
Assay [4] concerns C. coskatii PS02. Type of assay: cell-based, Clostridium coskatii (PS02). The following applies: for Growth on substrate: C. coskatii PS02, 1 g/L carbon source, N2:CO2 (80%:20%), OD600; for Chemoorganotrophic growth on substrate (in words): Clostridium coskatii (PS02). On the procedure: as §1

The record followed here is patent US8802405B2, “Ethanologenic Clostridium species, Clostridium coskatii” (Coskata, Inc., priority 2010, dated 2014).

Each structure is given as a SMILES string.

Take `O=C(O)C1=C[C@@H](O)[C@@H](O)[C@H](O)C1` [Shikimic acid]: the Growth on substrate result in assay [1], in assay [2], in assay [3] and in assay [4] was “+ (A positive growth response was recorded for an OD600 exceeding 0.2 AU)” in each case. In addition, in assay [4], the “Chemoorganotrophic growth on substrate (in words)” value (shortened to “Chemoorganotrophic growth”) is recorded as “growth was observed”.

On to `O=C(CO)[C@@H](O)[C@H](O)[C@H](O)CO` [Fructose], for which the Growth on substrate entry in assay [1], in assay [2], in assay [3] and in assay [4] was “+ (A positive growth response was recorded for an OD600 exceeding 0.2 AU)” in each case. The “Chemoorganotrophic growth” value in assay [4] is “growth was observed”.

Turning to `O=C(O)/C=C\C(=O)O` [Maleic acid], the “Growth on substrate (in words)” value in assay [1] was “inability”. Besides, the Growth on substrate result in assay [2], in assay [3] and in assay [4] was “+ (A positive growth response was recorded for an OD600 exceeding 0.2 AU)” throughout.

Regarding `N[C@@H](CCC(=O)O)C(=O)O` [Glutamate], the Growth on substrate result in assay [1], in assay [2], in assay [3] and in assay [4] was “+ (A positive growth response was recorded for an OD600 exceeding 0.2 AU)” each time. In addition, the “Chemoorganotrophic growth” value in assay [4] is given as “growth was observed”.

Consider `O=C(O)CC(=O)C(=O)O` [Oxaloacetic acid], for which the “Growth on substrate (in words)” value in assay [1] is listed as “inability”. Besides, the Growth on substrate entry in assay [2] and in assay [4] was “+ (A positive growth response was recorded for an OD600 exceeding 0.2 AU)” throughout. Also, the “Chemoorganotrophic growth” value in assay [4] is recorded as “growth was observed”.

With `C=C(OP(=O)(O)O)C(=O)O` [Phosphoenol-pyruvate], the Growth on substrate entry in assay [1], in assay [2], in assay [3] and in assay [4] was “+ (A positive growth response was recorded for an OD600 exceeding 0.2 AU)” each time. Also, the “Chemoorganotrophic growth” value in assay [4] is on record as “growth was observed”.

In the case of `O=C(O)CC(O)(CC(=O)O)C(=O)O` [Na-Citrate], the “Growth on substrate (in words)” value in assay [1], in assay [2] (C. autoethanogenum) and in assay [3] was “inability” each time. Also, the Growth on substrate entry in assay [4] is given as “+ (A positive growth response was recorded for an OD600 exceeding 0.2 AU)”. Further, the “Chemoorganotrophic growth” value in assay [4] is “growth was observed”.

As for `N[C@@H](Cc1c[nH]cn1)C(=O)O` [Histidine], the “Growth on substrate (in words)” value in assay [1] is “inability”. Moreover, the Growth on substrate entry in assay [2], in assay [3] and in assay [4] was “+ (A positive growth response was recorded for an OD600 exceeding 0.2 AU)” each time. The “Chemoorganotrophic growth” value in assay [4] is recorded as “growth was observed”.

Regarding `O=C[C@H](O)[C@@H](O)[C@H](O)CO` [Xylose], the Growth on substrate result in assay [1], in assay [2], in assay [3] and in assay [4] was “+ (A positive growth response was recorded for an OD600 exceeding 0.2 AU)” in each case. Moreover, the “Chemoorganotrophic growth” value in assay [4] was “growth was observed”.

In the case of `NC(=O)CC[C@H](N)C(=O)O` [Glutamine], the Growth on substrate entry in assay [1], in assay [2], in assay [3] and in assay [4] was “+ (A positive growth response was recorded for an OD600 exceeding 0.2 AU)” each time. For the same compound, the “Chemoorganotrophic growth” value in assay [4] is listed as “growth was observed”.

For the compound `N=C(N)NCCC[C@H](N)C(=O)O` [Arginine], the “Growth on substrate (in words)” value in assay [1] is “inability”. Moreover, the Growth on substrate result in assay [2], in assay [3] and in assay [4] was “+ (A positive growth response was recorded for an OD600 exceeding 0.2 AU)” in each case. Moreover, the “Chemoorganotrophic growth” value in assay [4] is on record as “growth was observed”.

Take `O=C(O)CCC(=O)C(=O)O` [Alpha-ketoglutarate]: the Growth on substrate entry in assay [1], in assay [2], in assay [3] and in assay [4] was “+ (A positive growth response was recorded for an OD600 exceeding 0.2 AU)” each time. Moreover, the “Chemoorganotrophic growth” value in assay [4] is given as “growth was observed”.

Consider `N[C@@H](CO)C(=O)O` [Serine], for which the Growth on substrate result in assay [1], in assay [2], in assay [3] and in assay [4] was “+ (A positive growth response was recorded for an OD600 exceeding 0.2 AU)” in each case. Also, the “Chemoorganotrophic growth” value in assay [4] was “growth was observed”.

Take `C[C@H](O)[C@H](O)[C@@H](O)[C@@H](O)C=O` [Rhamnose]: the Growth on substrate entry in assay [2] and in assay [3] was “+ (A positive growth response was recorded for an OD600 exceeding 0.2 AU)” in each case. Further, the “Chemoorganotrophic growth” value in assay [4] is “inability”.

Turning to `C[C@H](N)C(=O)O` [Alanine], the Growth on substrate entry in assay [1], in assay [2], in assay [3] and in assay [4] was “+ (A positive growth response was recorded for an OD600 exceeding 0.2 AU)” throughout. In assay [4], the “Chemoorganotrophic growth” value is “growth was observed”.

As to `O=C(O)[C@H](O)[C@@H](O)[C@H](O)[C@H](O)CO` [D-Gluconic Acid], the Growth on substrate entry in assay [2] and in assay [3] was “+ (A positive growth response was recorded for an OD600 exceeding 0.2 AU)” each time. Also, the “Chemoorganotrophic growth” value in assay [4] is listed as “inability”.

In the case of `CC(=O)C(=O)O` [Na-Pyruvate], the Growth on substrate entry in assay [1], in assay [2], in assay [3] and in assay [4] was “+ (A positive growth response was recorded for an OD600 exceeding 0.2 AU)” throughout. For the same compound, the “Chemoorganotrophic growth” value in assay [4] is on record as “growth was observed”.

On to `O=C(O)CC(O)C(=O)O` (centres unmarked) [Malic acid], for which the Growth on substrate entry in assay [1], in assay [2], in assay [3] and in assay [4] was “+ (A positive growth response was recorded for an OD600 exceeding 0.2 AU)” throughout. In assay [4], the “Chemoorganotrophic growth” value is recorded as “growth was observed”.

For the compound `O=C(O)CC(=O)O` [Malonic acid], the Growth on substrate entry in assay [1], in assay [2], in assay [3] and in assay [4] was “+ (A positive growth response was recorded for an OD600 exceeding 0.2 AU)” throughout. Moreover, in assay [4], the “Chemoorganotrophic growth” value is given as “growth was observed”.
